In US20250152527A1 (priority 2023, published 2025):

How the values were obtained:
[1] = system: patients with clinically stable coronary disease; settings: Nidorf et al., JACC 2013; 0.5 mg/day in addition to statins and other standard therapies; cited from earlier work
[2] = system: patients with clinically stable coronary disease; experiment: LoDoCo Trial: colchicine 0.5 mg/day added to standard secondary prevention therapies; format: in vivo, human
Description: This study is described in PCT/AU2013/001261 and is hereby incorporated in its entirety by reference.
All outcomes were evaluated by an experienced adjudicator blinded to the treatment allocation.
Patients with a history of bypass surgery were only eligible if they had undergone bypass surgery more than 10 years before, or had angiographic evidence of graft failure or had undergone stenting since their bypass surgery. All patients signed informed consent before randomization.
Patients who were intolerant to therapy remained in the study, and were followed in the usual manner and included in the primary intention to treat analysis.
The drug was dispensed by their usual chemist, and if requested, patients were reimbursed for the cost of these scripts. All other treatments were continued as usual.
An acute coronary syndrome (ACS) was defined as either (a) Acute Myocardial Infarction (AMI), as evidenced by acute ischemic chest pain associated with a rise in serum troponin above the upper limit of normal or (b) Unstable Angina (UA), as evidenced by a recent acceleration of the patient's angina unassociated with a rise in serum troponin but associated with angiographic evidence of a change in the patient's coronary anatomy. (Unstable Angina Braunwald classification types IB and IIB). The ACS was characterized as being stent-related if there was evidence of significant in-stent stenosis or acute stent thrombosis. Out of Hospital Cardiac Arrest was defined as either a sudden death as evidenced on the patient's death certificate, or a non-fatal out of hospital cardiac arrest, defined as a recovery from sudden collapse associated with documented asystole, ventricular tachycardia or ventricular fibrillation.
The primary efficacy outcome was the composite, ACS, fatal or non-fatal out of hospital cardiac arrest or non-cardio-embolic ischemic stroke. […]
All time to event outcomes were calculated in days by subtracting the date of randomization from either: (1) the date of event or death; or (2) the trial termination date for those patients not experiencing the defined event. […]

In the case of `COc1cc2c(c(OC)c1OC)-c1ccc(OC)c(=O)cc1[C@@H](NC(C)=O)CC2` [colchicine, (−)-N-[(7S, 12aS)-1,2,3,10-tetramethoxy-9-oxo-5,6,7,9-tetrahydrobenzo[a]heptalen-7-yl]-acetamide], the “prevention of cardiovascular events” value [1] is listed as “appeared effective for the prevention of cardiovascular events”, the “patients with ACS unrelated to stent disease associated with an AMI” value ([2]; 4/282 patients) is listed as 1.4% and the “patients with ACS unrelated to stent disease associated with UA” value ([2]; 5/282 patients) is listed as 1.8%. For the same molecule, the “patients with a primary outcome (ACS, out of hospital cardiac arrest or non-cardio-embolic ischemic stroke)” value ([2]; intention to treat, 15/282 patients, colchicine 0.5 mg/day, median follow up 36 months) was 5.3%.
